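Exposure lasted 48 hours, with cells grown in 96-well plates and compounds tested at five concentrations. TGI denotes the concentration required for complete inhibition of growth.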
How the values were obtained:
Assay in all cases: growth of human tumour cells (NCI), 48 h
[1] = tested on: RPMI-8226 leukemia
[2] = tested on: SN12C renal
[3] = tested on: RXF 393 renal
[4] = tested on: NCI-H460 lung
[5] = tested on: 786-0 renal
[6] = tested on: NCI-H23 lung
[7] = tested on: OVCAR-5 ovarian
[8] = tested on: HOP-62 NSCLC
[9] = tested on: SK-MEL-2 melanoma
[10] = tested on: DU-145 prostate
[11] = tested on: OVCAR-4 ovarian
[12] = tested on: HT29 colon

Compound	TGI [1] [µM]	TGI [2] [µM]	TGI [3] [µM]	TGI [4] [µM]	TGI [5] [µM]	TGI [6] [µM]	TGI [7] [µM]	TGI [8] [µM]	TGI [9] [µM]	TGI [10] [µM]	TGI [11] [µM]	TGI [12] [µM]
CCOC(=O)C(C)(C)Oc1ccc2c(=O)cc(-c3ccccc3)oc2c1	37.8	> 100	78.1	> 100	37.7	34.9	> 100	41	31.5	–	–	–
Cc1cccc(C(C)(C)C)c1NC(=O)/C(Cc1nc2ccc([N+](=O)[O-])cc2[nH]c1=O)=N/NC(=O)C[N+](C)(C)C	> 100	> 100	–	> 100	> 100	> 100	> 100	–	> 100	> 100	> 100	> 100
CN(C(=O)C1(C(=O)C=[N+]=[N-])CC1)c1ccccc1	> 100	> 100	> 100	> 100	> 100	> 100	> 100	> 100	> 100	> 100	–	> 100
CNC(=O)CCC(NC(C)=O)C(=O)NC(Cc1ccc(NC(=O)CCCCC(C)=O)cc1)C(=O)NC(CCC(=O)NC)C(=O)NC (centres undefined)	> 100	> 100	> 100	> 100	> 100	> 100	> 100	> 100	–	> 100	> 100	> 100
O=C(C1=C(C(=O)c2ccccc2)SC2(S1)C(C(=O)c1ccccc1)=C(C(=O)c1ccccc1)Sc1c2ssc1=O)c1ccccc1	–	> 100	> 100	> 100	> 100	> 100	59.2	> 100	> 100	> 100	> 100	> 100
COc1cc2cc(C(=O)N3CC(CCl)c4c3cc(N)c3ccccc43)[nH]c2cc1OCCN(C)C (centres undefined)	0.408	0.5	< 0.005	8.68	–	0.00833	16.3	0.00741	0.00726	0.0246	–	5.17
CC1=CC(O)C(O)C2(C)C1CC1OC(=O)C(O)C3C(C)C(O)C4(O)OCC13C42 (centres undefined)	108	> 625	51	50	–	250	> 454	348	196	–	476	159
N#Cc1c(Nc2ccc(F)cc2)[n+]([O-])c2ccc(Cl)cc2[n+]1[O-]	9.97	13.4	27.3	7.97	27.5	23.4	–	42.2	77.9	> 100	5.71	> 100
COC(=O)C(/C(=N/NC(=O)c1ccncc1)C(=O)Nc1ccccc1OC)c1nc2ccc(Cl)cc2[nH]c1=O (centres undefined)	> 100	> 100	> 100	> 100	> 100	> 100	> 100	> 100	> 100	–	> 100	> 100
CS(=O)(=O)OCCN1CCC2(CC1)SSC1(CCN(CCOS(C)(=O)=O)CC1)S2	29.6	> 100	–	> 100	> 100	> 100	93.2	> 100	> 100	–	> 100	> 100

— PubChem BioAssay (NCI)
